Test results published in BindingDB's records for doi:10.1097/00001813-200302000-00012 (Korea Research Institute of Chemical Technology, 2003).

Experiments:
[1] = TP_TRANSPORTER: drug resistance (paclitaxel) in MES-SA/DX5 cells
[2] = TP_TRANSPORTER: drug resistance (paclitaxel) in HCT15/CL02 cells

| IC50 [1] | IC50 [2] | SMILES |
| --- | --- | --- |
| 6.63 µM | 3.04 µM | COc1ccc(CCN(C)CCC[C@@]2(C#N)CCc3c2ccc(OC)c3OC)cc1OC |
| 7.65 µM | 3.11 µM | COc1ccc(CCN(C)CCC[C@]2(C#N)CCc3c2ccc(OC)c3OC)cc1OC |
